# Measurements: ChEMBL document CHEMBL1201862, “PubChem BioAssay data set” (2004)
# The source made the active and inactive calls.
# What was measured:
# [1] = biological target: T1, Sphingosine 1-phosphate receptor 4 (Homo sapiens, UniProt O95977); test: Late-stage fluorescence dose response cell-based assay to identify agonists of the Sphingosine 1-Phosphate Receptor 4 (S1P4): purchased compounds EC50. [Related pubchem assays (depositor defined):AID1509, AID1523, AID1563, AID1686, AID1701, AID1801]; type: functional
# T1 sequence (O95977 whole entry): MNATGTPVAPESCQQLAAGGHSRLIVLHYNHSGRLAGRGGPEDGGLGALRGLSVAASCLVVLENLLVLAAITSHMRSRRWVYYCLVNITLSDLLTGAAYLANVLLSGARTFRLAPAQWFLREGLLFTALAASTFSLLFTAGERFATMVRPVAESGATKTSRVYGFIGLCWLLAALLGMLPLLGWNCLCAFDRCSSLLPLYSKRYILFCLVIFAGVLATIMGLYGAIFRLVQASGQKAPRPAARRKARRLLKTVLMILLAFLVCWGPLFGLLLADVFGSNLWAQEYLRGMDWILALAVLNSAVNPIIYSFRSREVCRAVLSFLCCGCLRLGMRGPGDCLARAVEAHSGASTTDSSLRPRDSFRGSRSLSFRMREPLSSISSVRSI
# [2] = biological target: T2, Dual specificity protein phosphatase 6 (Rattus norvegicus, UniProt Q64346); test: MKP-3 phosphatase inhibitors, primary screen, biochemical, rat enzyme, in vitro (AID 425)
# T2 sequence (Q64346 whole entry): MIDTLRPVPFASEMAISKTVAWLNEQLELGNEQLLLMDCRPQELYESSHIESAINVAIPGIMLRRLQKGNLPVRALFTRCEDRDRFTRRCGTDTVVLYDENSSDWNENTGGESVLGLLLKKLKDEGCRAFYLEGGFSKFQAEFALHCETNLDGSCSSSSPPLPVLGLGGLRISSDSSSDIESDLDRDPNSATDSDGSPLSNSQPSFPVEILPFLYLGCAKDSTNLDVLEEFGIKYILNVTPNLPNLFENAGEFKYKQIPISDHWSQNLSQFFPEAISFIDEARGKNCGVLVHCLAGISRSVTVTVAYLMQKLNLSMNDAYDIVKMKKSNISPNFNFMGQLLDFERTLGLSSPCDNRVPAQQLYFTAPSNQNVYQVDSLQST
# [3] = biological target: Bcl-2-like protein 10 (Homo sapiens, UniProt Q9HD36); test: displacers of TR3 peptide from Bcl-B, primary screen, selectivity assay for Bfl-1 inhibitor project, biochemical, fluorescence polarization, FITC-TR3 peptide (AID 748);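 further: fluorescence polarization from a fluorescein-labelled TR3 peptide binding purified Bcl-B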
# [4] = biological target: T3, Tyrosine-protein phosphatase non-receptor type 7 (Homo sapiens, UniProt P35236); test: inhibitors of human HePTP phosphatase, […], biochemical, absorbance, leukemia target (AID 521); type: functional
# T3 sequence (P35236 whole entry): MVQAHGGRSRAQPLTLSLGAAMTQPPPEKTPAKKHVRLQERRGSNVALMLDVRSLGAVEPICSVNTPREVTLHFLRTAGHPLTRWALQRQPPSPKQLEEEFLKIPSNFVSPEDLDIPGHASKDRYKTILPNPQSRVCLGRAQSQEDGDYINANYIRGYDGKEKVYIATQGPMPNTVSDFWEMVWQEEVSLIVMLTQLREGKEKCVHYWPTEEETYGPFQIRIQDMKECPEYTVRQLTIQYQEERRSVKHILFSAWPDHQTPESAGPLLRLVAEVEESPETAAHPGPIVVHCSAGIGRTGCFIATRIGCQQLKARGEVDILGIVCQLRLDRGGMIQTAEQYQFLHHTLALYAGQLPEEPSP
# [5] = biological target: Eukaryotic translation initiation factor 4E (Mus musculus, UniProt P63073); test: eIF4E–eIF4G protein interaction inhibitors, dose response, biochemical, TR-FRET (AID 855); type: functional;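 further: potency for disrupting eIF4E binding to eIF4GI seen as loss of FRET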
# [6] = biological target: T4, Alkaline phosphatase, tissue-nonspecific isozyme (Homo sapiens, UniProt P05186); test: human TNAP enzyme inhibitors, SAR follow-up, biochemical, luminescent, dose response (AID 1056)
# T4 sequence (P05186 whole entry): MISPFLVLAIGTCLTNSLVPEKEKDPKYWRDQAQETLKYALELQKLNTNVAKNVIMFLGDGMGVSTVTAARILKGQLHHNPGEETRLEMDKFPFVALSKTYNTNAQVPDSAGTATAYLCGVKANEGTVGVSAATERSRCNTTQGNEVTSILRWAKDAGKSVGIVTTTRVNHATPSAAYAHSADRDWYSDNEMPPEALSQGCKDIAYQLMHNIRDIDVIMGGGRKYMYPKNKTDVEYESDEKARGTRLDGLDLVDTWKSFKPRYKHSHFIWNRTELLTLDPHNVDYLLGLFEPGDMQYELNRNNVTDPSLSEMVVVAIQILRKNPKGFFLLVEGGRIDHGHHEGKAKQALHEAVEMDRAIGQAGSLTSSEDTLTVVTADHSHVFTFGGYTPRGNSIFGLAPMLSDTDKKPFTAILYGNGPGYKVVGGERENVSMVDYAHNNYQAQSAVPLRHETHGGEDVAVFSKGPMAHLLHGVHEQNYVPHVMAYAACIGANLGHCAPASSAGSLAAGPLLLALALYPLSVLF
# [7] = biological target: Glyceraldehyde-3-phosphate dehydrogenase (Homo sapiens, UniProt P04406)
# [8] = biological target: T5, Coagulation factor XII (Homo sapiens, UniProt P00748); test: FXIIa inhibitor potency, concentration-response, biochemical (AID 716); type: functional
# T5 sequence (P00748 whole entry): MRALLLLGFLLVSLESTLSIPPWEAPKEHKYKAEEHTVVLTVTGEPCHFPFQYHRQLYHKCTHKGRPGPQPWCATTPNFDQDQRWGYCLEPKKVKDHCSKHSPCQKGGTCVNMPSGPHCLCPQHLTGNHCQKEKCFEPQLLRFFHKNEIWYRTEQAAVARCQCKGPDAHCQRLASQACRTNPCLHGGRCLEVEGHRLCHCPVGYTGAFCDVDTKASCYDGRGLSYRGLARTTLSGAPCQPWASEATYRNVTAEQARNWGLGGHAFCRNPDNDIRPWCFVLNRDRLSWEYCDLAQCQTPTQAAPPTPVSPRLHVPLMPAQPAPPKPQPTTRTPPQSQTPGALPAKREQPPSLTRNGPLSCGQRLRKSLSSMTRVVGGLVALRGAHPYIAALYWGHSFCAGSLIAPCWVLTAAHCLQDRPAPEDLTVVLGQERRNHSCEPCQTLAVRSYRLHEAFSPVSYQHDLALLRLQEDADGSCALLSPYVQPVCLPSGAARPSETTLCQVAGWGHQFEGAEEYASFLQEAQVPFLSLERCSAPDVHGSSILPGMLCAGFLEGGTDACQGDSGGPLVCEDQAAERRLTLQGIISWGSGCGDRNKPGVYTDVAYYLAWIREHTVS
# [9] = biological target: T6, E3 ubiquitin-protein ligase XIAP (Homo sapiens, UniProt P98170); test: Counter Screen using XIAP-Bir3 for Chemical Antagonists of Bir1/2 domains of IAP-family anti-apoptotic proteins. [Related pubchem assays (depositor defined):AID1018, AID1449, AID1514, AID1638, AID1749, AID1750, AID488957, AID488963]
# [10] = biological target: T6, E3 ubiquitin-protein ligase XIAP; test: XIAP antagonists, biochemical, IAP family, fluorescence polarization (AID 1018); type: functional
# [11] = biological target: Tumor necrosis factor (Homo sapiens, UniProt P01375); test: TNFa-triggered NF-kB activation inhibitors, SAR follow-up, cell-based, revised (AID 2337); type: functional
# [12] = tested on: HEK293; test: cells; conditions: Homo sapiens;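 further: cells exposed to compound for 14 hours overnight before viability readout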
# [13] = biological target: Nucleotide-binding oligomerization domain-containing protein 1 (Homo sapiens, UniProt Q9Y239); test: NOD1 signaling inhibitors, SAR follow-up, revised (AID 2333); type: functional
# [14] = THP-1 cell cytotoxicity, dose response, cytotoxicity control for Vif-APOBEC3G degradation inhibitor project, THP-1 cells (AID 1117359); type: functional; conditions: Human immunodeficiency virus 1, THP-1
# [15] = biological target: Estrogen receptor beta (Homo sapiens, UniProt Q92731); test: ERβ–SRC-3 coactivator interaction inhibitors, confirmation, orthogonal assay, biochemical, ELISA, streptavidin-HRP readout (AID 1060)
# [16] = biological target: Protein Tat (Human immunodeficiency virus type 1 group M subtype B (isolate HXB2)(HIV-1), UniProt P04608); type: functional;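 further: tat binding to TAR RNA read out by fluorescence polarization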
# [17] = biological target: Bcl-2-like protein 1 (Homo sapiens, UniProt Q07817); test: BCL-XL inhibitors, dose response, selectivity assay for MCL1 inhibitor project, biochemical, fluorescence polarization, 1536-well (AID 2218)
# [18] = biological target: Induced myeloid leukemia cell differentiation protein Mcl-1 (Homo sapiens, UniProt Q07820); test: MCL1-BIM BH3 interaction inhibitors, dose response, biochemical, fluorescence polarization, BIM-BH3 peptide, 1536-well (AID 2217)
# Chain of Induced myeloid leukemia cell differentiation protein Mcl-1 (Q07820 whole entry): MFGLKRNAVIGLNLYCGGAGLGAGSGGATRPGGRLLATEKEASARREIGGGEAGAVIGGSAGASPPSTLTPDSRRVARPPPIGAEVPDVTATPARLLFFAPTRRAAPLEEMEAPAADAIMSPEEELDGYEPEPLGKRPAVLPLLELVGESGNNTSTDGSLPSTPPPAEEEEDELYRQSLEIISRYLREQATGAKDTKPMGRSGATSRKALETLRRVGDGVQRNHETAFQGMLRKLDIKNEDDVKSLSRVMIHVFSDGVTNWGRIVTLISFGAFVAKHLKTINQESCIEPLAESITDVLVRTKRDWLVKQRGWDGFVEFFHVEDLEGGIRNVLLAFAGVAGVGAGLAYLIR
# Chain of Bcl-2-like protein 10 (Q9HD36 whole entry): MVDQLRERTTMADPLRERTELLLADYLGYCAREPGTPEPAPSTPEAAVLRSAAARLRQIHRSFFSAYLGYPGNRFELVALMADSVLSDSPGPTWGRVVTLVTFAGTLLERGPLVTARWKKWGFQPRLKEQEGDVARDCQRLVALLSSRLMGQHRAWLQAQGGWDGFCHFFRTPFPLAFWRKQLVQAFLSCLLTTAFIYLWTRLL
# T6 sequence (P98170 whole entry): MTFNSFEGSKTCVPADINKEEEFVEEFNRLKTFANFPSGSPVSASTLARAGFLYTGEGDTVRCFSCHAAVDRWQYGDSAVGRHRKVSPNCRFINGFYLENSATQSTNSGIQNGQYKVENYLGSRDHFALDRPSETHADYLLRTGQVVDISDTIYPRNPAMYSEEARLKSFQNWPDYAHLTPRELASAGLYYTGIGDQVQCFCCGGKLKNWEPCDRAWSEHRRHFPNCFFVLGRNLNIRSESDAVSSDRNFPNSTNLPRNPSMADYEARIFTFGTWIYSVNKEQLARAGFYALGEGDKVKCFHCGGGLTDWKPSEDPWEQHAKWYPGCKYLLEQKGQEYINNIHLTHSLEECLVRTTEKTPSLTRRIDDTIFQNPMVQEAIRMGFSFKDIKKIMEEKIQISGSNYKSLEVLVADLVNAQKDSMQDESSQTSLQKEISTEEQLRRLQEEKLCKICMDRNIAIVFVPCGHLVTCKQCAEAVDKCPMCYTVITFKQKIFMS
# Chain of Glyceraldehyde-3-phosphate dehydrogenase (P04406 whole entry): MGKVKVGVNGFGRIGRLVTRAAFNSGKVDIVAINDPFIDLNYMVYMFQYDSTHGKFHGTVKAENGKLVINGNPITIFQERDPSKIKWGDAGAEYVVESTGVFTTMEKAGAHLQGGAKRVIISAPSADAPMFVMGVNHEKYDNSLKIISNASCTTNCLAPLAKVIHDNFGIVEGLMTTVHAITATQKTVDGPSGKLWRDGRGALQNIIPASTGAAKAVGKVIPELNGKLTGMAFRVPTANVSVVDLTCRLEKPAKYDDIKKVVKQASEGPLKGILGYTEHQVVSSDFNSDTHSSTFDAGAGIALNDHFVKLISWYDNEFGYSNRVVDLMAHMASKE
# Chain of Nucleotide-binding oligomerization domain-containing protein 1 (Q9Y239 whole entry, the tested form may be a part): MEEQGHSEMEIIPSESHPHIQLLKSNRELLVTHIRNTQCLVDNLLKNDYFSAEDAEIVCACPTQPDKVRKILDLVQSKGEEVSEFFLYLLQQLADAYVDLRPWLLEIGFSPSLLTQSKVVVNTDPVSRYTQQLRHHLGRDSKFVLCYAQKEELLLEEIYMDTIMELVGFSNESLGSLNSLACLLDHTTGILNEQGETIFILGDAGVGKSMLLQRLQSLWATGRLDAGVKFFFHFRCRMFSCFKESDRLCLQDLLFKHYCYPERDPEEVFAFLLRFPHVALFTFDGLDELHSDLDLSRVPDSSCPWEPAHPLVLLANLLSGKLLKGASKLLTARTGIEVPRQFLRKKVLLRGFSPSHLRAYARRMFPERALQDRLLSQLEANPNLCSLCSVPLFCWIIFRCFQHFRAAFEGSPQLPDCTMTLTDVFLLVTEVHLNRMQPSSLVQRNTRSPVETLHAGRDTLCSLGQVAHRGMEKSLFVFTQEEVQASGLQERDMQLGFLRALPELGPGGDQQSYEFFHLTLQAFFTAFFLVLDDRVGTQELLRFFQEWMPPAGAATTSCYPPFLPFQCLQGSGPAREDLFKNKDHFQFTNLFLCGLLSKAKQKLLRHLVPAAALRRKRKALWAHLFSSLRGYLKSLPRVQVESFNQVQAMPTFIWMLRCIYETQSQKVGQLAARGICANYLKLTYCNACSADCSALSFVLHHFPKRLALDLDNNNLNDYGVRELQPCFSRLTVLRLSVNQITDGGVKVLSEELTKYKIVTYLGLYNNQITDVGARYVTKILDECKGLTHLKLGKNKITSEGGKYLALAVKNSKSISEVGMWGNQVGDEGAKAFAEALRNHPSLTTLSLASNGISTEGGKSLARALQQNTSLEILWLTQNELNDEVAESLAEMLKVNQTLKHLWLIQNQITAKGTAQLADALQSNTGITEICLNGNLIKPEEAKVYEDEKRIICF
# Chain of Estrogen receptor beta (Q92731 whole entry): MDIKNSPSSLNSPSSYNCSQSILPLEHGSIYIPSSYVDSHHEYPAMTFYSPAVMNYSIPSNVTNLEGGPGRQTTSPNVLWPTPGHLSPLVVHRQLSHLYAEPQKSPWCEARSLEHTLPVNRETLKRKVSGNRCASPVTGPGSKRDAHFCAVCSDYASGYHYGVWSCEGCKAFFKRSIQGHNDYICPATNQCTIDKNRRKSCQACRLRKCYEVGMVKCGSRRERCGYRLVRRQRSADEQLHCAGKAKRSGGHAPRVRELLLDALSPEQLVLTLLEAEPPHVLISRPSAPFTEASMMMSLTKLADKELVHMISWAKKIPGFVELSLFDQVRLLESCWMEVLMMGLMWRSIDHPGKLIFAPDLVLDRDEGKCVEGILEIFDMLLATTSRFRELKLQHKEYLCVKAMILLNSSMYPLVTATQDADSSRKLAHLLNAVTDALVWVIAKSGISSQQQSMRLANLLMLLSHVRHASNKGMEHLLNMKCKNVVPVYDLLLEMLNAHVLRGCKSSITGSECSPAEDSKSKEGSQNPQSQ
# Chain of Eukaryotic translation initiation factor 4E (P63073 whole entry): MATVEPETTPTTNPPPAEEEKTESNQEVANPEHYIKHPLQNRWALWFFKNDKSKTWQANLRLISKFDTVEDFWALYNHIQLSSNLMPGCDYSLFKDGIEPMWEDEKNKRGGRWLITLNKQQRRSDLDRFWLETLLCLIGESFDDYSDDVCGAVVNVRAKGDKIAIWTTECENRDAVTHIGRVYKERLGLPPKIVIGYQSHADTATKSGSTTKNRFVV
# Chain of Bcl-2-like protein 1 (Q07817 whole entry): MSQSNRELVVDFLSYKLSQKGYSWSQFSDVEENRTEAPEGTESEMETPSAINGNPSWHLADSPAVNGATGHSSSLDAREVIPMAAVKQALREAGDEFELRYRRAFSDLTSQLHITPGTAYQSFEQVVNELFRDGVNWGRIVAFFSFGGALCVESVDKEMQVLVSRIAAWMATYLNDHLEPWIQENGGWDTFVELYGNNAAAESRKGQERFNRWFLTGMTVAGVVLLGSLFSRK
# Chain of Protein Tat (P04608 whole entry): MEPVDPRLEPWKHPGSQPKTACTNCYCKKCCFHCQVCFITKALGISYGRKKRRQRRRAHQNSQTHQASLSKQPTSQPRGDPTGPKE
# Chain of Tumor necrosis factor (P01375 whole entry): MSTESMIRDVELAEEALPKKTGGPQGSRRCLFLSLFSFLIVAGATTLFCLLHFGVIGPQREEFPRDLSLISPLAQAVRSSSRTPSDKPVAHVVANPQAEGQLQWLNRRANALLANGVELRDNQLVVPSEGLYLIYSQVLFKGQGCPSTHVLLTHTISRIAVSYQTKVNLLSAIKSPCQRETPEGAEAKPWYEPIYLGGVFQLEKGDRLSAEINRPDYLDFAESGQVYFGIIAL
structure (smiles),measurement,setting,value
Cc1ccc(OCc2cn3cc(Cl)ccc3n2)c([N+](=O)[O-])n1,EC50,[1],> 50 µM (inactive)
O=C(OC1CCCCC1)c1ccc2c(c1)C1C=CCC1C(C(=O)O)N2 (stereo not given),IC50,[2],1.83 µM (active)
same,IC50,[3],2 µM (active)
same,IC50,[4],0.84 µM (active)
same,IC50,[5],5.02 µM (active)
COc1ccc(OC)c(S(=O)(=O)Nc2ccc3ccccc3c2)c1,IC50,[6],> 10 µM (inactive)
same,IC50,[7],> 10 µM (inconclusive)
O=C(NCC1CCCO1)c1ccc(COCC(F)(F)C(F)F)cc1 (stereo not given),IC50,[8],> 50 µM (inactive)
O=C(Nc1ccc(Cl)c(Cl)c1)N1CC=CCC1,IC50,[8],> 50 µM (inactive)
COc1ccc(-n2nc(C(=O)N3CCN(Cc4ccc5c(c4)OCO5)CC3)c3ccccc3c2=O)cc1,IC50,[9],> 100 µM (inactive)
same,IC50,[10],> 100 µM (not active)
O=C(Nc1ccc(S(=O)(=O)O)cc1)c1ccc(CN2CCc3ccccc3C2)cc1,IC50,[11],> 20 µM (inactive)
same,IC50,[12],> 20 µM (inactive)
same,IC50,[13],> 20 µM (inactive)
CC(=N)/C(C#N)=C(/O)CSc1nnc(NC(C)C)s1,CC50,[14],> 40 µM (active)
same,IC50,[15],< 0.023 µM (not active)
same,IC50,[16],> 100 µM (active)
same,IC50,[17],> 109 µM (not active)
same,IC50,[3],23.7 µM (active)
same,IC50,[18],16.3 µM (not active)
